# Measured values as given in patent US11214594B2, “Antimicrobial peptide having synergistic antibacterial effect with antibiotics on multidrug resistant bacteria, and use thereof” (priority 2016, dated 2022).
# Where a SMILES comes first, the peptide text is derived from it.
# What was measured:
# [1] = test system: A. baumannii; test: MIC of antibiotic during combined treatment with antimicrobial peptide; type: cell-based, Acinetobacter baumannii; conditions: for Antibiotic MIC, Erythromycin / Antibiotic MIC, Linezolid / Antibiotic MIC, Vancomycin: A. baumannii
# How it was run: (§1)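 First, antibiotic solution is diluted with MH medium; next, the dilution is dispensed into wells containing peptide; finally, the orientation is swapped and MIC of each mixture determined.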
# [2] = test system: E. coli; test: as above; type: cell-based, Escherichia coli; conditions: for Antibiotic MIC, Erythromycin / Antibiotic MIC, Linezolid / Antibiotic MIC, Vancomycin: E. coli
# How it was run: as §1
# [3] = test system: multi-drug resistant bacteria; test: MIC, summary statements for multi-drug resistant bacteria; type: cell-based
# Description: For the antibacterial activity, a minimal inhibitory concentration (MIC) of a peptide in which fungus bodies were not split in an MH medium with sufficient nutrients was measured.
# Specifically, the strains described in the following [Table 2] were purchased and diluted with an MH medium such that the number of bacteria was 2×10^6 colony-forming units (CFUs), 100 μl of each of the diluted strains was aliquoted into a 96-well microtiter plate, and then 100 μl of a peptide solution diluted with the MH medium (solution diluted stepwise at 2: 1) was added to each well.
# [4] = test system: MDRST 8009; type: cell-based, Salmonella typhimurium; conditions: agent alone
# How it was run: (§2)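 Each strain is brought to 2×10^6 CFU in nutrient-sufficient Mueller-Hinton medium and dispensed into wells. Peptide solutions, stepwise diluted 2:1 in the same medium, are then added. The minimal concentration preventing growth gives the MIC.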
# [5] = test system: MDREC 1229; test: microbe, parasite or virus in culture; type: cell-based, Escherichia coli
# How it was run: as §2
# [6] = test system: E. coli; test: microbe, parasite or virus in culture; type: cell-based, Escherichia coli; conditions: 16 h
# How it was run: as §2
# [7] = combined with peptide at 1 μg/ml
# [8] = combined with peptide at 2 μg/ml
# [9] = combined with peptide at 4 μg/ml
# [10] = combined with peptide at 6 μg/ml
# [11] = combined with peptide at 8 μg/ml
# [12] = combined with peptide at 16 μg/ml
# [13] = combined with peptide at 32 μg/ml
# [14] = combined with peptide at 64 μg/ml
structure (smiles),measurement,setting,value
"CC[C@H](C)[C@H](NC(=O)[C@H](CCCCN)NC(=O)[C@H](Cc1c[nH]c2ccccc12)NC(=O)[C@@H](N)CCCNC(=N)N)C(=O)N[C@@H](Cc1ccccc1)C(=O)N[C@@H](CCCCN)C(=O)N[C@@H](CCCCN)C(=O)N[C@H](C(=O)N1CCC[C@H]1C(=O)N[C@@H](CCCCN)C(=O)N[C@@H](CC(C)C)C(=O)N[C@@H](CC(C)C)C(=O)N[C@@H](Cc1c[nH]cn1)C(=O)N[C@@H](CCC(=O)O)C(=O)N[C@@H](C)C(=O)N[C@@H](CCCCN)C(=O)N[C@@H](CCCCN)C(=O)N[C@@H](Cc1c[nH]c2ccccc12)C(N)=O)[C@@H](C)CC [PapMA-13, RWK IFK KIP KLL HEA KKW-NH2] (H-RWKIFKKIPKLLHEAKKW-NH2; N-terminus assumed)",Synergistic effect of antibacterial activity with existing antibiotics compared with PapMA-1,[1]; A. baumannii and MDRAB 12035,higher level than the PapMA-1 peptide
same,"Antibiotic MIC, Erythromycin",[1]; [7],16 µg/mL
same,"Antibiotic MIC, Linezolid",[1]; [7],64 µg/mL
same,"Antibiotic MIC, Vancomycin",[1]; [7],128 µg/mL
same,"Antibiotic MIC, Erythromycin",[1]; [8],8 µg/mL
same,"Antibiotic MIC, Linezolid",[1]; [8],32 µg/mL
same,"Antibiotic MIC, Vancomycin",[1]; [8],64 µg/mL
same,"Antibiotic MIC, Erythromycin",[1]; [9],1 µg/mL
same,"Antibiotic MIC, Linezolid",[1]; [9],4 µg/mL
same,"Antibiotic MIC, Vancomycin",[1]; [9],4 µg/mL
same,"Antibiotic MIC, Erythromycin",[1]; [10],0.5 µg/mL
same,"Antibiotic MIC, Linezolid",[1]; [10],2 µg/mL
same,"Antibiotic MIC, Vancomycin",[1]; [10],1 µg/mL
same,"Antibiotic MIC, Erythromycin",[1]; [11],0.125 µg/mL
same,"Antibiotic MIC, Linezolid",[1]; [11],1 µg/mL
same,"Antibiotic MIC, Vancomycin",[1]; [11],0.5 µg/mL
same,"Antibiotic MIC, Erythromycin",[1]; [12],0 µg/mL
same,"Antibiotic MIC, Linezolid",[1]; [12],0 µg/mL
same,"Antibiotic MIC, Vancomycin",[1]; [12],0 µg/mL
same,"Antibiotic MIC, Erythromycin",[1]; [13],0 µg/mL
same,"Antibiotic MIC, Linezolid",[1]; [13],0 µg/mL
same,"Antibiotic MIC, Vancomycin",[1]; [13],0 µg/mL
same,"Antibiotic MIC, Erythromycin",[1]; [14],0 µg/mL
same,"Antibiotic MIC, Linezolid",[1]; [14],0 µg/mL
same,"Antibiotic MIC, Vancomycin",[1]; [14],0 µg/mL
same,Synergistic effect of antibacterial activity with existing antibiotics compared with PapMA-1,[2]; E. coli and MDREC1229,higher level than the PapMA-1 peptide
same,"Antibiotic MIC, Erythromycin",[2]; erythromycin combined with peptide at 1 μg/ml,64 µg/mL
same,"Antibiotic MIC, Erythromycin",[2]; erythromycin combined with peptide at 2 μg/ml,16 µg/mL
same,"Antibiotic MIC, Erythromycin",[2]; erythromycin combined with peptide at 4 μg/ml,2 µg/mL
same,"Antibiotic MIC, Erythromycin",[2]; erythromycin combined with peptide at 6 μg/ml,1 µg/mL
same,"Antibiotic MIC, Erythromycin",[2]; erythromycin combined with peptide at 8 μg/ml,0.25 µg/mL
same,"Antibiotic MIC, Erythromycin",[2]; erythromycin combined with peptide at 16 μg/ml,0 µg/mL
same,"Antibiotic MIC, Erythromycin",[2]; erythromycin combined with peptide at 32 μg/ml,0 µg/mL
same,"Antibiotic MIC, Erythromycin",[2]; erythromycin combined with peptide at 64 μg/ml,0 µg/mL
same,"Antibiotic MIC, Linezolid",[2]; linezolid combined with peptide at 1 μg/ml,>128 µg/mL
same,"Antibiotic MIC, Linezolid",[2]; linezolid combined with peptide at 2 μg/ml,64 µg/mL
same,"Antibiotic MIC, Linezolid",[2]; linezolid combined with peptide at 4 μg/ml,8 µg/mL
same,"Antibiotic MIC, Linezolid",[2]; linezolid combined with peptide at 6 μg/ml,4 µg/mL
same,"Antibiotic MIC, Linezolid",[2]; linezolid combined with peptide at 8 μg/ml,1 µg/mL
same,"Antibiotic MIC, Linezolid",[2]; linezolid combined with peptide at 16 μg/ml,0 µg/mL
same,"Antibiotic MIC, Linezolid",[2]; linezolid combined with peptide at 32 μg/ml,0 µg/mL
same,"Antibiotic MIC, Linezolid",[2]; linezolid combined with peptide at 64 μg/ml,0 µg/mL
same,"Antibiotic MIC, Vancomycin",[2]; vancomycin combined with peptide at 1 μg/ml,>128 µg/mL
same,"Antibiotic MIC, Vancomycin",[2]; vancomycin combined with peptide at 2 μg/ml,64 µg/mL
same,"Antibiotic MIC, Vancomycin",[2]; vancomycin combined with peptide at 4 μg/ml,16 µg/mL
same,"Antibiotic MIC, Vancomycin",[2]; vancomycin combined with peptide at 6 μg/ml,8 µg/mL
same,"Antibiotic MIC, Vancomycin",[2]; vancomycin combined with peptide at 8 μg/ml,2 µg/mL
same,"Antibiotic MIC, Vancomycin",[2]; vancomycin combined with peptide at 16 μg/ml,0 µg/mL
same,"Antibiotic MIC, Vancomycin",[2]; vancomycin combined with peptide at 32 μg/ml,0 µg/mL
same,"Antibiotic MIC, Vancomycin",[2]; vancomycin combined with peptide at 64 μg/ml,0 µg/mL
same,Antibacterial activity relative to PapMA-1,[3],twice to four times higher
same,Minimal inhibitory concentration MIC,[4],16 µg/mL
same,Minimal inhibitory concentration MIC,[5],16 µg/mL
same,"Peptide MIC, peptide alone",[5],16 µg/mL
same,Minimal inhibitory concentration MIC,[6],16 µg/mL
